Results as given in patent publication US7368287B2, “Use of L-α-lysophosphatidylcholine to obtain the differentiation of monocytes into mature dendritic cells in vitro” (Biomerieux, priority 2002, dated 2008).

How the values were obtained:
BALB/c mice [1] = assay: Proliferation of HEL-specific T cells of popliteal lymph nodes after immunization (thymidine incorporation); format: in vivo, mouse
Experimental: LPC stimulates the T response specific for a co-injected soluble antigen. LPC dissolved in PBS (250 or 500 nmol in 50 μl) is mixed with hen egg lysozyme (HEL, 50 μg) and this mixture is injected into the plantar foot pad of BALB/c mice. After 7 days, the popliteal lymph nodes are removed and their cells are restimulated in triplicate in vitro, in a culture medium containing 30 μM of HEL antigen, or in the absence of HEL. After 3 days, the T lymphocyte proliferation is measured by incorporation of triturated thymidine for 16 h.
INTRALIPID® blocks the inflammation and the immune response induced by LPC, in vivo. In this example, 3 batches of BALB/c mice are immunized against the hen egg lysozyme (HEL) antigen by injection of 50 μl of solution into the plantar foot pad. The “HEL” control batch receives 50 μg of HEL, the “HEL+Intralipid” batch receives a mixture of INTRALIPID® (45 μl) and of 50 μg of HEL (5 μl of a solution at 10 mg/ml). The “HEL+LPC” batch receives 50 μg of HEL with 350 nmol of LPC dissolved in PBS. The “HEL+LPC+Intralipid” batch receives 50 μg of HEL mixed with 350 nmol of LPC dissolved in 45 μl of INTRALIPID®. After 24 hours, the thickness of the foot pads is measured using a micrometer, and compared with the measurement taken before injection. The difference in thickness is proportional to the intensity of the inflammation.
Seven days after the injection, the popliteal lymph nodes are removed and their cells are restimulated in vitro in triplicate, in a culture medium containing 10 μM of HEL or in the absence of HEL. After 3 days, the proliferation of HEL-specific T lymphocytes is measured by incorporation of triturated thymidine for 16 h.

BALB/c mice [2] = assay: Migration of skin dendritic cells to draining lymph nodes (FITC uptake); format: in vivo, mouse; details: auricular and maxillary lymph nodes after 24 h; LPC 0.1 M on ear skin 10 minutes before FITC 1.5%
Experimental: This fluorescent label is taken up by the dendritic cells of the skin. After 24 h, the auricular and maxillary lymph nodes are removed and the cells are placed in suspension. The cell suspension is enriched in dendritic cells by metrizamide (Sigma) gradient centrifugation. The cells are labeled with an antibody (Pharmingen) which recognizes Major Histocompatibility Complex (MHC) […] molecules and analysis by flow cytometry makes it possible to quantify the percentage of large cells (dendritic cells) expressing the MHC class II molecules and containing FITC. These cells are presenting cells which have taken up the FITC in the periphery and have migrated to the lymph nodes.

PPARγ = target: T1, PPARγ (Homo sapiens, UniProt P37231); assay: PPAR binding activity by gel shift on nuclear proteins of treated monocytes; format: cell-based; details: Table 7; ciglitizone 50 μM 15 minutes before LPC 40 μM for 2 hours; control = 100%
T1 construct: After having harvested the cells, the nuclear proteins were extracted with the Nuclear extract Kit (Sigma); endogenous in cells; host or cells: monocytes undergoing differentiation into dendritic cells (nuclear extract)
T1 sequence (P37231 1-505): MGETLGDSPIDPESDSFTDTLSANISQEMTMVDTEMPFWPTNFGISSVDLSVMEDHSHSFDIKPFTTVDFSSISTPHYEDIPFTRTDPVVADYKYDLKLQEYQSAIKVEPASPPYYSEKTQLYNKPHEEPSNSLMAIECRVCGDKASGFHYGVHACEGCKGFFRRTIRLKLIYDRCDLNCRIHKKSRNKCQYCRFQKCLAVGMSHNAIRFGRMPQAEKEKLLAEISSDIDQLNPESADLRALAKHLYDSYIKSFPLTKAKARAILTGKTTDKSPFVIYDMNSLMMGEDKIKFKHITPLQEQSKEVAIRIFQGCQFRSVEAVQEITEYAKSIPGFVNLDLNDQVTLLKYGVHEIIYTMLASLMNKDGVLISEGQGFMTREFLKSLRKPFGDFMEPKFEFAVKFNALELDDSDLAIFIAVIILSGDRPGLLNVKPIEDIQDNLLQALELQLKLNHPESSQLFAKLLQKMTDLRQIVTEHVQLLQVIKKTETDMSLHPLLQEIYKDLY
Experimental: (§1) Next, the inventors investigated the transcription factors involved in the maturation process induced by LPC. In order to determine whether PPARs are involved in the LPC-induced maturation, the ability of the two transcription factors PPARγ and PPARδ to bind was analyzed using the gel shift technique. 3 isotypes of PPAR nuclear receptors (peroxisome proliferator-activated receptor) exist: α, γ and δ. PPARγs are the targets for molecules of the thiazolidinedione class, such as ciglitizone, used in the treatment of type II diabetes. PPARδs have a broader expression and can be repressors of PPARγs. The monocytes undergoing differentiation were incubated for two hours with a solution of LPC (40 μM) (“LPC” cells). “Control” cells are also obtained in the absence of LPC in the culture medium. After having harvested the cells, the nuclear proteins were extracted with the Nuclear extract Kit (Sigma). The nuclear proteins were then brought into contact with a ratioactively labeled probe containing a response element recognized by PPARs. […] The PPAR binding activity was determined by measuring the intensity of these bands. These activities are expressed as a percentage with respect to the “control” cells. […]
(§2) The activity of the PPARγ and PPARδ transcription factors was measured in these cells by the gel shift technique, as described above.
(§3) INTRALIPID® regulates PPARs in vitro. […] The cells were harvested after 1 h, 2 h or 8 h of incubation with INTRALIPID®, the nuclear proteins were extracted and the activity of PPARγ and PPARδ was determined as described in example 6.
(§4) Secondly, a solution of INTRALIPID® (50 μg/ml of phospholipids) was added to the culture medium on the 5th day of monocyte differentiation, 15 minutes before the addition of a solution of LPC (40 μM) (“LPC+Intralipid” cells). […] The cells were harvested after 2 h of incubation, the nuclear proteins were extracted and the activity of PPARγ and PPARδ was determined as described in example 6.

PPARδ = assay: as above; format: cell-based, human; details: Table 7; ciglitizone 50 μM 15 minutes before LPC 40 μM for 2 hours; control = 100%
Experimental: as §1, §2, §3, §4

PAF receptor = assay: CD86 expression in presence of PAF or of the PAF antagonist BN52021; format: cell-based, human; details: differentiation induced by oxidized LDLs; BN52021 added on 5th day
Experimental: The phenotype of the “control” and “LPC” cells is analyzed by flow cytometry on a FACSCalibur (Becton Dickinson, Francklin Lakes, N.J., USA) using FITC (fluorosceine isothiocyanate)-conjugated anti-CD14, anti-HLA-DR and anti-CD80 and PE (phycoerythrin)-conjugated anti-CD1a, anti-CD83, anti-CD86 and anti-CD40 (Beckman Coulter). According to the state of the art, monocytes preferentially have a CD14+ CD1a− phenotype, immature dendritic cells preferentially have a CD14− CD1a+CD86− phenotype, and mature dendritic cells preferentially have a CD14− CD1a intermediate—CD86+ phenotype.
Thus, a solution of PAF (Sigma, 5 μM) was added to the culture medium on the 5th day of monocyte differentiation. The expression of CD86 by the “control” cells and by the “LPC” cells, obtained in the presence or in the absence of PAF, was analyzed according to the protocol described in example 2, and the results are given in table 9.
Thus, a solution of the PAF antagonist BN52021 (Biomol, Plymouth Meeting, USA, 100 μM) was added to the culture medium on the 5th day of monocyte differentiation. The expression of CD86 by the “control” and “LPC” cells, obtained in the presence or in the absence of BN52021, was analyzed according to the protocol described in example 2, and the results are given in table 10.

[3] = Table 18, HEL 50 μg, LPC 350 nmol, Intralipid 45 μl, seven days after injection

Compound: HEL: hen egg lysozyme, soluble antigen; antigen-only group
- Restimulation with HEL (30 μM) (BALB/c mice [1]; Table 13, immunization with HEL 50 μg alone): 5370 ± 1983 CPM
- Proliferation in the absence of HEL (BALB/c mice [1]; Table 13, immunization with HEL 50 μg alone, day 7 lymph node cells): 1315 ± 275 CPM
- Proliferation in the absence of HEL (BALB/c mice [1]; [3]): 370 ± 212 cpm
- Restimulation with HEL (10 μM) (BALB/c mice [1]; [3]): 738 ± 408 cpm

Compound: O=C1OC2(c3ccc(O)cc3Oc3cc(O)ccc32)c2ccc(N=C=S)cc21 [FITC]
- FITC+ dendritic cells (BALB/c mice [2]): 7.1 ± 1.7%

Compound: CC1(COc2ccc(CC3SC(=O)NC3=O)cc2)CCCCC1 (centres unmarked) [Ciglitizone, reference compound]
- PPARγ binding activity (PPARγ): 237%
- PPARδ binding activity (PPARδ): 106%

Compound: CC1C(=O)OC2C(O)C34C5CC(C(C)(C)C)C36C(OC(=O)C6O)OC4(C(=O)O5)C12O (centres unmarked) [BN52021, reference compound]
- Inhibition of the action of the oxidized LDLs (PAF receptor): 100%
